Reference: US12525646B2, “Ionic cyclic nitroxyl radical oligomers” (Wisconsin Alumni Research Foundation, priority 2021, dated 2026)

Key:
Type in all cases: physicochemical
[1] = Viscosity of solutions versus volumetric capacity; conditions: compared with TMAP-TEMPO; reduced (uncharged) state
Text: When determining the maximum cycling concentration with the water-miscible i-TEMPODs, the active molecule solubility no longer limits volumetric capacity as the interaction between the dissolved species and the water molecules are very thermodynamically favorable, and each TEMPO dimer is able to dissolve with a minimal amount of coordinated water. Instead, the cycling concentration will be limited by the electrolyte viscosity and its relation to pumping energy cost. The viscosity of representative TEMPO monomer and dimer solutions was experimentally measured at various volumetric capacities in their reduced (uncharged) states. FIG. 35A compares the viscosity of the i-TEMPODs to previously known TEMPO monomers, which are designated “OH”, “Nine”, and “TMAP”. Descriptions of these monomers can be found in: T. Liu, X. Wei, Z. Nie, V. Sprenkle, W. Wang, A Total Organic Aqueous Redox Flow Battery Employing a Low Cost and Sustainable Methyl Viologen Anolyte and 4-HO-TEMPO Catholyte. Adv. Energy Mater. 6 (2016); T. Janoschka, N. Martin, M. D. Hager, U. S. Schubert, An Aqueous Redox-Flow Battery with High Capacity and Power. The TEMPTMA/MV System. Angew. Chemie—Int. Ed. 55, 14427-14430 (2016); and Y. Liu, M. A. Goulet, L. Tong, Y. Liu, Y. Ji, L. Wu, R. G. Gordon, M. J. Aziz, Z. Yang, T. Xu, A Long-Lifetime All-Organic Aqueous Flow Battery Utilizing TMAP-TEMPO Radical. Chem. 5, 1861-1870 (2019). […]

[2] = Electrochemical impedance spectroscopy (PEIS), Z-fitting to ideal Randle equivalent circuit; conditions: PEIS Z-fit
[3] = Permeability through AMVN anion-exchange membrane; conditions: low ionic-conductivity AMVN membrane
Text: Crossover of the TEMPO species is critical to RFB lifetime as it lowers the catholyte capacity through material loss and the anolyte capacity through chemical/electrochemical side reactions.

CC1(C)CC([N+](C)(C)C2CC(C)(C)N([O])C(C)(C)C2)CC(C)(C)N1[O] [i-TEMPOD-1]
viscosity at a given volumetric capacity [1]: nearly equal viscosity | C1 [2]: 264.7 uF | Rct [2]: 17.43 Ohm | Ru [2]: 27.54 Ohm | crossover with the AMVN membrane [3]: no detectible crossover
